# Patent publication US12036262B2, “Edible plant-derived nanoparticles for regulation of gut microbiota” (University of Louisville Research Foundation, Inc., priority 2017, dated 2024)
# Key:
# SpaC [1] = assay: SpaC expression in LGG (qPCR, Western blotting); type: cell-based, Lactobacillus rhamnosus; settings: compared with scrambled miRNA
# Description: Quantitative Real-Time PCR for RNA Expression. The quantity of mature miRNAs was determined with quantitative real-time PCR (qPCR) using a miScript II RT kit (QIAGEN Inc., Germantown, Maryland, United States of America) and miScript SYBR Green PCR Kit (QIAGEN) with QIAGEN 3′ universal primers. For analysis of gene mRNA expression, 1 μg of total RNA was reverse transcribed using SuperScript III reverse transcriptase (Invitrogen, Waltham, Massachusetts, United States of America), and quantitation was performed using SsoAdvanced™ Universal SYBR Green Supermix (Bio-Rad Laboratories, Inc., Hercules, California, United States of America) and the listed primers (Table 1) with SsoAdvanced™ Universal SYBR Green Supermix (Bio-Rad). qPCR was performed using a Bio-Rad CFX96 qPCR System with each reaction run in triplicate. Analysis and fold-changes were determined using the comparative threshold cycle (Ct) method. Changes in miRNA or mRNA expression were calculated as fold-change.
# Western Blotting. LGG cells were treated as indicated in each individual Figure and harvested from 100-350 ml cultures by centrifugation at 5,000×g for 10 minutes. […] After the Alexa Fluor-647 (Invitrogen) conjugated secondary antibody incubation, the bands were visualized and analyzed using an Odyssey Imager (LI-COR, Lincoln, Nebraska, United States of America). […]
# SpaC [2] = assay: Immunogold labeling of LGG pili and TEM; type: cell-based, Lactobacillus rhamnosus; settings: compared with PBS or scrambled miRNA
# Description: Immunogold Labeling of LGG Pili and TEM. To visualize LGG pili via transmission electron microscopy (TEM), LGG cultures were grown overnight (OD600<1.0) and washed once with PBS. Formvar-carbon-coated copper grids (Electron Microscopy Sciences, Hatfield, Pennsylvania, United States of America) first were floated for 1 hour on droplets of the diluted LGG at 10^7/mL in PBS, washed several times with 0.02 M glycine in PBS, and then treated with a blocking solution of 1% bovine serum albumin (BSA) in PBS. The grids were then floated for 1 hour on droplets of anti-SpaC serum (1:100) in blocking solution. After a wash with 0.1% BSA in PBS, the grids were incubated for 20 minutes with protein A-conjugated 10-nm-diameter gold particles (Cytodiagnostics, Burlington, Ontario, Canada) diluted 1:55 in blocking solution. After one wash in PBS, the grids were fixed with 1% glutaraldehyde, washed with distilled water, and then stained with 1% ammonium molybdate on the surface of the EM grid. After excess ammonium molybdate was removed from the grid, images were visualized using a Thermo-Fisher TEM Tecnai Spirit at 80 kV, and images were collected with an AMT XR60 digital camera.
# LGG = assay: Bacterial translocation to peripheral blood and liver; type: in vivo; settings: DSS-treated SPF and germ-free mice, compared with LGG alone
# Description: Bacterial Translocation. Bacterial translocation from the murine gut to peripheral blood and liver was determined at the indicated times presented in the relevant figures after oral bacterial administration. Fifty microliters of anticoagulant blood were cultured on MRS agar for 48 h at 37° C. in an anaerobic chamber. Liver tissue samples were homogenized in 0.5% Triton X-100/PBS, and 100 μl of the homogenates were cultured on MRS agar plates. After 48 hours of incubation, CFUs were counted, and the results are expressed as number of bacteria detected/mL of blood or gram of liver.
# MC-38 cells = assay: Migration assay, intracellular LGG; type: cell-based, C57BL/6 murine
# Description: Cells. C57BL/6 murine colon adenocarcinoma MC-38 cells (gender unknown; Kerafast, Inc., Boston, Massachusetts, United States of America) or human epithelial colorectal adenocarcinoma Caco-2 cells (American Type Culture Collection, ATCC®, Manassas, Virginia, United States of America) were grown in tissue culture plates with Dulbecco's modified Eagle's medium (DMEM) supplemented with 10% heat-inactivated fetal bovine serum (FBS), 100 U/mL penicillin, and 100 μg/mL streptomycin at 37° C. in a 5% CO2 atmosphere.
# Migration Assays. MC-38 or Caco-2 cells (ATCC) were seeded at 1×10^5 cells per well in a 12-well tissue culture plate with Dulbecco's modified Eagle's medium (DMEM) without antibiotics. The cells were inoculated with 1×10^7 bacteria per well for 90 minutes at 37° C. in a 5% CO2 atmosphere to allow bacterial adhesion and entry. The number of intracellular bacteria was quantified as described in Zhang & Wang, 1998.
substance,measurement,setting,value
"ath-miR167a: GELN miRNA, SEQ ID NO: 9 (UGAAGCUGCCAGCAUGAUCUA; expressed or natural sequence)",SpaC expression in LGG,SpaC [1],significantly down-regulated
same,SpaC protein on pili of LGG (TEM),SpaC [2],much less SpaC protein could be detected on pili
same,LGG migration into bloodstream and liver,LGG,significantly reduced LGG translocation into the peripheral blood
same,LGG entry into MC38 cells,MC-38 cells,could prevent the entry of LGG into gut epithelial cells
